Measurements reported in ChEMBL document CHEMBL5550152, “Design, synthesis and evaluation of novel prostate-specific membrane antigen-targeted aryl [18F]fluorosulfate PET tracers” (Bioorg Med Chem, 2024).

How the values were obtained:
[1] = Drug distribution in nude mouse large intestine xenografted with human 22Rv1 cells at 8.1 MBq,iv measured after 2 hrs; format: ADME, tissue-based, CWR22R; details: in vivo
[2] = Drug distribution in nude mouse lung xenografted with human 22Rv1 cells at 8.1 MBq,iv measured after 2 hrs; format: ADME, tissue-based, CWR22R; details: in vivo
[3] = Drug distribution in nude mouse gall bladder xenografted with human 22Rv1 cells at 8.1 MBq,iv measured after 2 hrs; format: ADME, tissue-based, CWR22R; details: in vivo
[4] = Drug distribution in nude mouse stomach xenografted with human 22Rv1 cells at 8.1 MBq,iv measured after 2 hrs in presence of 2-PMPA; format: ADME, tissue-based, CWR22R; details: in vivo
[5] = Drug distribution in nude mouse gall bladder xenografted with human 22Rv1 cells at 8.1 MBq,iv measured after 4 hrs; format: ADME, tissue-based, CWR22R; details: in vivo
[6] = Drug uptake in mouse abdomen xenografted with human 22Rv1 cells at 7.4 MBq, iv measured after 2 to 4 hrs by PET imaging analysis; format: ADME, organism-based, CWR22R; details: in vivo, time 2-4 hrs
[7] = Drug distribution in nude mouse spleen xenografted with human 22Rv1 cells at 8.1 MBq,iv measured after 1 hr; format: ADME, tissue-based, CWR22R; details: in vivo
[8] = Drug uptake in mouse tumor xenografted with human 22Rv1 cells at 7.4 MBq, iv pretreated with 2-PMPA measured after 2 hrs by PET imaging analysis relative to control; format: ADME, organism-based, Neoplasm, CWR22R; details: in vivo
[9] = Drug distribution in nude mouse tumor xenografted with human 22Rv1 cells at 8.1 MBq,iv measured after 4 hrs; format: ADME, tissue-based, Neoplasm, CWR22R; details: in vivo
[10] = Drug distribution in nude mouse liver xenografted with human 22Rv1 cells at 8.1 MBq,iv measured after 1 hr; format: ADME, tissue-based, CWR22R; details: in vivo
[11] = Drug distribution in nude mouse brain xenografted with human 22Rv1 cells at 8.1 MBq,iv measured after 1 hr; format: ADME, tissue-based, CWR22R; details: in vivo
[12] = Drug distribution in nude mouse small intestine xenografted with human 22Rv1 cells at 8.1 MBq,iv measured after 2 hrs in presence of 2-PMPA; format: ADME, tissue-based, CWR22R; details: in vivo
[13] = Drug distribution in nude mouse large intestine xenografted with human 22Rv1 cells at 8.1 MBq,iv measured after 4 hrs; format: ADME, tissue-based, CWR22R; details: in vivo
[14] = Drug distribution in nude mouse muscle tissue xenografted with human 22Rv1 cells at 8.1 MBq,iv measured after 1 hr; format: ADME, tissue-based, CWR22R; details: in vivo
[15] = Drug distribution in nude mouse small intestine xenografted with human 22Rv1 cells at 8.1 MBq,iv measured after 2 hrs; format: ADME, tissue-based, CWR22R; details: in vivo
[16] = Drug distribution in nude mouse heart xenografted with human 22Rv1 cells at 8.1 MBq,iv measured after 2 hrs; format: ADME, tissue-based, CWR22R; details: in vivo
[17] = Drug distribution in nude mouse spleen xenografted with human 22Rv1 cells at 8.1 MBq,iv measured after 2 hrs; format: ADME, tissue-based, CWR22R; details: in vivo
[18] = Drug distribution in nude mouse small intestine xenografted with human 22Rv1 cells at 8.1 MBq,iv measured after 1 hr; format: ADME, tissue-based, CWR22R; details: in vivo
[19] = Drug uptake in human 22Rv1 cells at 3.7 10^-2MBq pretreated with 2-PMPA for 30 mins followed by compound addition and measured after 1 hr relative to control; format: ADME, cell-based; details: cwr22r
[20] = Drug distribution in nude mouse lung xenografted with human 22Rv1 cells at 8.1 MBq,iv measured after 4 hrs; format: ADME, tissue-based, CWR22R; details: in vivo
[21] = Drug distribution in nude mouse stomach xenografted with human 22Rv1 cells at 8.1 MBq,iv measured after 4 hrs; format: ADME, tissue-based, CWR22R; details: in vivo
[22] = Drug distribution in nude mouse blood xenografted with human 22Rv1 cells at 8.1 MBq,iv measured after 2 hrs; format: ADME, tissue-based, CWR22R; details: in vivo
[23] = Drug distribution in nude mouse muscle tissue xenografted with human 22Rv1 cells at 8.1 MBq,iv measured after 2 hrs in presence of 2-PMPA; format: ADME, tissue-based, CWR22R; details: in vivo
[24] = Drug distribution in nude mouse liver xenografted with human 22Rv1 cells at 8.1 MBq,iv measured after 2 hrs in presence of 2-PMPA; format: ADME, tissue-based, CWR22R; details: in vivo
[25] = Drug distribution in nude mouse kidney xenografted with human 22Rv1 cells at 8.1 MBq,iv measured after 2 hrs; format: ADME, tissue-based, CWR22R; details: in vivo
[26] = Drug uptake in mouse tumor xenografted with human 22Rv1 cells at 7.4 MBq, iv pretreated with 2-PMPA measured after 4 hrs by PET imaging analysis relative to control; format: ADME, organism-based, Neoplasm, CWR22R; details: in vivo
[27] = Drug distribution in nude mouse bone xenografted with human 22Rv1 cells at 8.1 MBq,iv measured after 4 hrs; format: ADME, tissue-based, Bone element, CWR22R; details: in vivo
[28] = Drug uptake in human 22Rv1 cells at 3.7 10^-2MBq measured after 1 hr relative to control; format: ADME, cell-based; details: cwr22r
[29] = Drug distribution in nude mouse kidney xenografted with human 22Rv1 cells at 8.1 MBq,iv measured after 4 hrs; format: ADME, tissue-based, CWR22R; details: in vivo
[30] = Drug distribution in nude mouse brain xenografted with human 22Rv1 cells at 8.1 MBq,iv measured after 4 hrs; format: ADME, tissue-based, CWR22R; details: in vivo
[31] = Drug distribution in nude mouse spleen xenografted with human 22Rv1 cells at 8.1 MBq,iv measured after 4 hrs; format: ADME, tissue-based, CWR22R; details: in vivo
[32] = Drug distribution in nude mouse blood xenografted with human 22Rv1 cells at 8.1 MBq,iv measured after 1 hr; format: ADME, tissue-based, CWR22R; details: in vivo

**Q.** What does the source list for `COc1cc(C(=O)N[C@@H](CCC(=O)O)C(=O)N[C@@H](CCC(=O)O)C(=O)NCc2ccc(C(=O)N[C@@H](Cc3ccc4ccccc4c3)C(=O)NCCCC[C@H](NC(=O)N[C@@H](CCC(=O)O)C(=O)O)C(=O)O)cc2)ccc1OS(=O)(=O)[18F]`?
**A.** Drug uptake [1]: 2.77 % ID/g; Drug uptake [2]: 1.28 % ID/g; Drug uptake [3]: 6.05 % ID/g; Drug uptake [4]: 0.57 % ID/g; Drug uptake [5]: 1.39 % ID/g; Drug uptake [6]: Active; Drug uptake [7]: 1.85 % ID/g; Drug uptake [8]: 1.37 % ID/g; Drug uptake [9]: 4.47 % ID/g; Drug uptake [10]: 4.61 % ID/g; Drug uptake [11]: 0.15 % ID/g; Drug uptake [12]: 9.02 % ID/g; Drug uptake [13]: 1.34 % ID/g; Drug uptake [14]: 1.32 % ID/g; Drug uptake [15]: 1.91 % ID/g; Drug uptake [16]: 0.97 % ID/g; Drug uptake [17]: 1.23 % ID/g; Drug uptake [18]: 2.58 % ID/g; Drug uptake [19]: 0.53%; Drug uptake [20]: 0.52 % ID/g; Drug uptake [21]: 0.44 % ID/g; Drug uptake [22]: 2.95 % ID/g; Drug uptake [23]: 0.46 % ID/g; Drug uptake [24]: 2.4 % ID/g; Drug uptake [25]: 23.42 % ID/g; Drug uptake [26]: 1.4 % ID/g; Drug uptake [27]: 3.76 % ID/g; Drug uptake [28]: 0.72%; Drug uptake [29]: 19.91 % ID/g; Drug uptake [30]: 0.02 % ID/g; Drug uptake [31]: 0.97 % ID/g; Drug uptake [32]: 6.43 % ID/g
